Each compound was assayed against human PDE1B enzyme (Homo sapiens (Human), UniProt Q01064) (assay: IMAP TR-FRET PDE1B enzymatic assay). Settings: negative log of half-maximal molar inhibitory concentration; 200 nM FAM-cAMP; values given as bins.
Type: biochemical
Summary of the method: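 Full-length GST-tagged human PDE1B (250 pg/well) in IMAP BSA buffer with 10 U/ml calmodulin and 2.5 mM CaCl2; compound pre-incubated 5 min at room temperature, then 200 nM (final) FAM-cAMP for 30 min. IMAP binding reagent/Tb added, 1 h; TR-FRET 520/490 ratio read. IC50 from sigmoidal dose-response fit.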

`Cc1oc2ncnc(NC3(C)CC3)c2c1C(=O)N1CCc2c(ncnc2NC(C)C)C1` [Example 762, 6-Methyl-N-(1-methylcyclopropyl)-5-f{4-[(propan-2-yl)amino]-5H,6H,7H,8H-pyrido[3,4-d]pyrimidine-7-carbonyl}furo[2,3-d]pyrimidin-4-amine] was tested, and the “PDE1b (pIC50)” value was >8.
For `COc1ccc(CNC(=O)c2c(C)oc3ncnc(NC4(C)CC4)c23)nc1` [Example 55, N-[(5-Methoxypyridin-2-yl)methyl]-6-methyl-4-[(1-methylcyclopropyl)amino]furo[2,3-d]pyrimidine-5-carboxamide], the “PDE1b (pIC50)” value was >8.
For `Cc1oc2ncnc(NC3(C)CC3)c2c1C(=O)N1CCC(c2cccc(F)c2)C1` (stereo not drawn) [Example 389, 5-[3-(3-Fluorophenyl)pyrrolidine-1-carbonyl]-6-methyl-N-(1-methylcyclopropyl)furo[2,3-d]pyrimidin-4-amine], the “PDE1b (pIC50)” value was >8.
With `Cc1cnc(CNC(=O)c2c(C)oc3ncnc(NC4(C)CC4)c23)s1` [Example 467, 6-Methyl-N-[(5-methyl-1,3-thiazol-2-yl)methyl]-4-[(1-methylcyclopropyl)amino]furo[2,3-d]pyrimidine-5-carboxamide] the “PDE1b (pIC50)” value was >8.
In the case of `Cc1oc2ncnc(NC3(C)CC3)c2c1C(=O)N1CCC(O)(c2ccc(F)cc2)CC1` [Example 63, 4-(4-Fluorophenyl)-1-{6-methyl-4-[(1-methylcyclopropyl)amino]furo[2,3-d]pyrimidine-5-carbonyl}piperidin-4-ol], the “PDE1b (pIC50)” value was >8.
With `COc1cnc(C2=CCN(C(=O)c3c(C)oc4ncnc(NC5(C)CC5)c34)CC2)cn1` [Example 784, 5-[4-(5-Methoxypyrazin-2-yl)-1,2,3,6-tetrahydropyridine-1-carbonyl]-6-methyl-N-(1-methylcyclopropyl)furo[2,3-d]pyrimidin-4-amine] the “PDE1b (pIC50)” value was >8.
`Cc1ccc(CNC(=O)c2c(C)oc3ncnc(NC4(C)CC4)c23)cc1C` [Example 237, N-[(3,4-Dimethylphenyl)methyl]-6-methyl-4-[(1-methylcyclopropyl)amino]furo[2,3-d]pyrimidine-5-carboxamide] was tested, and the “PDE1b (pIC50)” value was >8.
In the case of `Cc1oc2ncnc(NC3(C)CC3)c2c1C(=O)N1CCN(c2ccc(C#N)cc2)CC1` [Example 47, 4-(4-{6-Methyl-4-[(1-methylcyclopropyl)amino]furo[2,3-d]pyrimidine-5-carbonyl}piperazin-1-yl)benzonitrile], the “PDE1b (pIC50)” value was >8.

Same assay, conditions: negative log of half-maximal molar inhibitory concentration; 200 nM FAM-cAMP; values given as bins; read-out: PDE1b (pIC50) (converted)

`CCCOc1ncnc2c1CCN(C(=O)c1c(C)oc3ncnc(NC4(C)CC4)c13)C2` [Example 806, 6-Methyl-N-(1-methylcyclopropyl)-5-f{4-propoxy-5H,6H,7H,8H-pyrido[3,4-d]pyrimidine-7-carbonyl}furo[2,3-d]pyrimidin-4-amine] and `Cc1oc2ncnc(NC3(C)CC3)c2c1C(=O)N1CCc2c(ccnc2OCF)C1` [Example 769, 5-[5-(Fluoromethoxy)-1,2,3,4-tetrahydro-2,6-naphthyridine-2-carbonyl]-6-methyl-N-(1-methylcyclopropyl)furo[2,3-d]pyrimidin-4-amine] fall in the same range of IC50: 10 to 100 nM for the first, 10 to 100 nM for the second.

`COc1c(C)cnc(CN(C)C(=O)c2c(C)oc3ncnc(NC4(C)CC4)c23)c1C` [Example 498, N-[(4-Methoxy-3,5-dimethylpyridin-2-yl)methyl]-N,6-dimethyl-4-[(1-methylcyclopropyl)amino]furo[2,3-d]pyrimidine-5-carboxamide] and `COc1ccc(NC(=O)c2c(C)oc3ncnc(NC4(C)CC4)c23)nc1` [Example 144, N-(5-Methoxypyridin-2-yl)-6-methyl-4-[(1-methylcyclopropyl)amino]furo[2,3-d]pyrimidine-5-carboxamide] fall in the same range of IC50: 10 to 100 nM for the first, 10 to 100 nM for the second.

`Cc1ccc(C2CCN(C(=O)c3c(C)oc4ncnc(NC5(C)CC5)c34)CC2)cn1` [Example 383, 6-Methyl-N-(1-methylcyclopropyl)-5-[4-(6-methylpyridin-3-yl)piperidine-1-carbonyl]furo[2,3-d]pyrimidin-4-amine] and `Cc1oc2ncnc(NC3(C)CC3)c2c1C(=O)N1CCC(c2cncc(F)c2)C1` (stereo not drawn) [Example 339, 5-[3-(5-Fluoropyridin-3-yl)pyrrolidine-1-carbonyl]-6-methyl-N-(1-methylcyclopropyl)furo[2,3-d]pyrimidin-4-amine] fall in the same range of IC50: 10 to 100 nM for the first, 10 to 100 nM for the second.

First: Cc1oc2ncnc(NC3(C)CC3)c2c1C(=O)N1CCc2c(ncn(CF)c2=O)C1 [Example 16, 3-(Fluoromethyl)-7-{6-methyl-4-[(1-methylcyclopropyl)amino]furo[2,3-d]pyrimidine-5-carbonyl}-3H,4H,5H,6H,7H,8H-pyrido[3,4-d]pyrimidin-4-one]
Second: Cc1oc2ncnc(NC3(C)CC3)c2c1C(=O)N1CCn2nc(C#N)cc2C1 [Example 636, 5-{6-Methyl-4-[(1-methylcyclopropyl)amino]furo[2,3-d]pyrimidine-5-carbonyl}-4H,5H,6H,7H-pyrazolo[1,5-a]pyrazine-2-carbonitrile]
The IC50 of the first is lower: 10 to 100 nM for the first, 100 to 1000 nM for the second.

`Cc1oc2ncnc(NC3(C)CC3)c2c1C(=O)NCc1cnc(F)cn1` [Example 9, N-((5-Fluoropyrazin-2-yl)methyl)-6-methyl-4-((1-methylcyclopropyl)amino)furo[2,3-d]pyrimidine-5-carboxamide] and `Cc1oc2ncnc(NC3(C)CC3)c2c1C(=O)NCc1ccnc(F)c1` [Example 164, N-[(2-Fluoropyridin-4-yl)methyl]-6-methyl-4-[(1-methylcyclopropyl)amino]furo[2,3-d]pyrimidine-5-carboxamide] fall in the same range of IC50: 10 to 100 nM for the first, 10 to 100 nM for the second.

`Cc1oc2ncnc(NC3(C)CC3)c2c1C(=O)NCc1cc(=O)[nH]cn1` [Example 661, 6-Methyl-4-[(1-methylcyclopropyl)amino]-N-[(6-oxo-1,6-dihydropyrimidin-4-yl)methyl]furo[2,3-d]pyrimidine-5-carboxamide] and `Cc1oc2ncnc(NC3(C)CC3)c2c1C(=O)NCc1cn(C)cn1` [Example 116, 6-Methyl-N-[(1-methyl-1H-imidazol-4-yl)methyl]-4-[(1-methylcyclopropyl)amino]furo[2,3-d]pyrimidine-5-carboxamide] fall in the same range of IC50: 10 to 100 nM for the first, 10 to 100 nM for the second.

First: Cc1oc2ncnc(NC3(C)CC3)c2c1C(=O)Nc1cn(C)cn1 [Example 435, 6-Methyl-N-(1-methyl-1H-imidazol-4-yl)-4-[(1-methylcyclopropyl)amino]furo[2,3-d]pyrimidine-5-carboxamide]
Second: Cc1oc2ncnc(NC3(C)CC3)c2c1C(=O)NC(C)c1ccon1 (stereo not drawn) [Example 750, 6-Methyl-4-[(1-methylcyclopropyl)amino]-N-[1-(1,2-oxazol-3-yl)ethyl]furo[2,3-d]pyrimidine-5-carboxamide]
The IC50 of the first is higher: 100 to 1000 nM for the first, 10 to 100 nM for the second.

`Cc1oc2ncnc(NC3(C)CC3)c2c1C(=O)N1CCc2sccc2C1` [Example 273, 6-Methyl-N-(1-methylcyclopropyl)-5-{4H,5H,6H,7H-thieno[3,2-c]pyridine-5-carbonyl}furo[2,3-d]pyrimidin-4-amine] and `COc1ccc2c(n1)CCN(C(=O)c1c(C)oc3ncnc(NC4(C)CC4)c13)C2` [Example 635, 5-(2-Methoxy-5,6,7,8-tetrahydro-1,6-naphthyridine-6-carbonyl)-6-methyl-N-(1-methylcyclopropyl)furo[2,3-d]pyrimidin-4-amine] fall in the same range of IC50: 10 to 100 nM for the first, 10 to 100 nM for the second.

`COc1cc(CNC(=O)c2c(C)oc3ncnc(NC4(C)CC4)c23)ccc1O` [Example 487, N-[(4-Hydroxy-3-methoxyphenyl)methyl]-6-methyl-4-[(1-methylcyclopropyl)amino]furo[2,3-d]pyrimidine-5-carboxamide] and `COc1cc(NC(=O)c2c(C)oc3ncnc(NC4(C)CC4)c23)ccc1F` [Example 253, N-(4-Fluoro-3-methoxyphenyl)-6-methyl-4-[(1-methylcyclopropyl)amino]furo[2,3-d]pyrimidine-5-carboxamide] fall in the same range of IC50: 10 to 100 nM for the first, 10 to 100 nM for the second.

First: Cc1cc(N2CCC(NC(=O)c3c(C)oc4ncnc(NC5(C)CC5)c34)CC2)ncn1 [Example 671, 6-Methyl-4-[(1-methylcyclopropyl)amino]-N-[1-(6-methylpyrimidin-4-yl)piperidin-4-yl]furo[2,3-d]pyrimidine-5-carboxamide]
Second: Cc1oc2ncnc(NC3(C)CC3)c2c1C(=O)NCc1cc(C(N)=O)on1 [Example 328, 3-[({6-Methyl-4-[(1-methylcyclopropyl)amino]furo[2,3-d]pyrimidin-5-yl}formamido)methyl]-1,2-oxazole-5-carboxamide]
The IC50 of the first is higher: 100 to 1000 nM for the first, 10 to 100 nM for the second.

`COc1ccc(C(C)NC(=O)c2c(C)oc3ncnc(NC4(C)CC4)c23)cc1` (stereo in doubt) [Example 480, N-[(1S)-1-(4-Methoxyphenyl)ethyl]-6-methyl-4-[(1-methylcyclopropyl)amino]furo[2,3-d]pyrimidine-5-carboxamide] and `CCC(CC)NC(=O)c1c(C)oc2ncnc(NC3(C)CC3)c12` [Example 169, 6-Methyl-4-[(1-methylcyclopropyl)amino]-N-(pentan-3-yl)furo[2,3-d]pyrimidine-5-carboxamide] fall in the same range of IC50: 10 to 100 nM for the first, 10 to 100 nM for the second.

First: Cc1oc2ncnc(NC3(C)CC3)c2c1C(=O)N1Cc2nc(C(C)C)[nH]c(=O)c2C1 [Example 682, 6-{6-Methyl-4-[(1-methylcyclopropyl)amino]furo[2,3-d]pyrimidine-5-carbonyl}-2-(propan-2-yl)-3H,4H,5H,6H,7H-pyrrolo[3,4-d]pyrimidin-4-one]
Second: Cc1oc2ncnc(NC3(C)CC3)c2c1C(=O)NCc1cc2ccc(F)cc2[nH]c1=O [Example 584, N-[(7-Fluoro-2-oxo-1,2-dihydroquinolin-3-yl)methyl]-6-methyl-4-[(1-methylcyclopropyl)amino]furo[2,3-d]pyrimidine-5-carboxamide]
The IC50 of the first is higher: 100 to 1000 nM for the first, 10 to 100 nM for the second.

Work on `Cc1oc2ncnc(NC3(C)CC3)c2c1C(=O)NCCc1nc2cc(F)ccc2n1C` [Example 734, N-[2-(5-Fluoro-1-methyl-1H-1,3-benzodiazol-2-yl)ethyl]-6-methyl-4-[(1-methylcyclopropyl)amino]furo[2,3-d]pyrimidine-5-carboxamide] yielded an IC50 of 10 to 100 nM.

— US20250145633A1, “SUBSTITUTED FURANOPYRIMIDINE COMPOUNDS AS PDE1 INHIBITORS” (Dart NeuroScience, LLC, priority 2017, published 2025)
